From patent publication US20090089889A9, “Neuromedin u receptor subtype 1 deficient transgenic mice and uses thereof” (priority 2006, published 2009)
Entries after “also recorded” stand apart in the source; their conditions may differ. Where no end group is shown, it is not given here.

Columns and labels:
Type in all cases: in vivo, mouse
[1] = test system: lean and DIO C57BL/6 mice; test: Ad libitum food intake of lean and DIO mice after rat NMU peptide
Description: (§1) For acute nocturnal feeding studies, ad libitum fed male mice maintained on regular chow were weighed and dosed either intraperitoneally (ip) or icv ˜30 min prior to the onset of the dark phase of the light cycle and provided with a preweighed aliquot of chow which was then weighed two and 18 hours (overnight) after the onset of the dark phase. Mice were again weighed at the later time point. For chronic feeding studies, ad libitum fed male mice normally maintained on regular chow were switched to a palatable moderate fat diet at the initiation of treatment and food intake and body weight were measured daily.

C57BL/6 mice [2] = test: Acute nocturnal feeding study, peripheral (i.p.) NMU in wild-type mice; settings: i.p. (peripheral) ~30 min before dark phase, measured 18 h later
Description: (§2) Food intake (FIG. 1A) and body weight (FIG. 1B) were measured in C57BL/6 mice dosed intraperitoneally (i.p.) either with vehicle (saline) or with NMU approximately 30 minutes prior to onset of darkness. Measurements were taken about 18 hours later. * indicates p value of <0.05, n=6 per treatment group. In FIGS. 1C and 1D, food intake and body weight are measured in Nmur1 and Nmur2 mice dosed ip with either saline or 30 mg/kg (mkg) NMU about 30 minutes prior to the onset of the dark phase. Measurements were taken 18 hrs later. *, P<0.05 vs. saline, n=6 per treatment group. Nmur1 or Nmur2 mice were dosed i.p. with either vehicle (saline) or 30 mpk NMU ˜30 min. prior to the onset of the dark phase and food intake (C) and body weights (D) were measured 18 h (overnight) later. *, P<0.05 vs. corresponding vehicle; #, P<0.05 vs. Nmu1r+/+, NMU; $, P=0.052; n=10 per treatment group.
(§3) The Nmur1 mice were maintained on a 50% C57BL/6×50% 129S6/SvEv background and Nmur2 mice (licensed from Deltagen) on a 75% C57BL/6×25% 129/OlaHsd background. For comparison with wild-type, 10-12 week-old male C57BL/6 mice were purchased from Taconic Farms. Mice were individually housed in Tecniplast cages in a conventional SPF facility. […]
All resultant measurement values were reported as mean±S.E.M. and data was analyzed by the two-tailed unpaired Student's t test. […]

Nmur1−/− mice [3] = test: Acute NMU administration (peripheral, i.p.) in NMUR1 knockout mice
Description: as §2
Nmur1 knockout (Nmur1^−/−) mice were generated using standard homologous recombination techniques. Briefly, a mouse genomic DNA library was screened with a mouse Nmur1mur cDNA probe, which was generated by PCR. One positive clone was isolated. Two regions of the clone were subcloned into pKO Scrambler NTKV-1904 (Stratagene) and a targeting vector was generated. The targeting vector was linearized by NotI restriction enzyme digestion and transformed into AB2.1 embryonic stem (ES) cells by electroporation with a Bio-Rad Gene Pulser. Transfected cells were cultured with G418 and FIAU for positive and negative selections, respectively. Approximately 500 clones were selected, and 20 correctly targeted ES cell clones were identified by Southern blot analysis. Five correctly targeted ES clones were injected into C57BL/6 blastocysts and these were implanted into pseudopregnant female mice. Several chimeric progeny gave germ-line transmission of the mutant NMUR1 allele and one NMUR1^−/− was established. F3 hybrid mice were used in all experiments
(§4) The Nmur1 mice were maintained on a 50% C57BL/6×50% 129S6/SvEv background and Nmur2 mice (licensed from Deltagen) on a 75% C57BL/6×25% 129/OlaHsd background. For comparison with wild-type, 10-12 week-old male C57BL/6 mice were purchased from Taconic Farms. Mice were individually housed in Tecniplast cages in a conventional SPF facility. Mice were maintained on either regular chow (Teklad 7012: 13.4% kcal from fat; Harlan Teklad), a moderate fat diet (D12266B: 32% kcal from fat; Research Diets, Inc.) or, to induce obesity (DIO), a high fat diet (D12492: 60% kcal from fat; Research Diets, Inc.) with ad libitum access to water in a 12-h light/12-h dark cycle, unless stated otherwise.
as §1

Nmur2−/− mice [4] = test: Acute peripheral (i.p.) NMU administration in NMUR2 knockout mice; settings: peripherally administered NMU
Description: as §2, §3

C57BL/6 mice [5] = test: Acute nocturnal feeding study, central (i.c.v.) NMU in wild-type mice; settings: measured 2 h later
Description: (§5) FIG. 2A describes results from an experiment where C57BL/6 mice were dosed intracerebronventricularly (i.c.v) with either vehicle (aCSF) or NMU ˜30 min. prior to the onset of the dark phase and food intake was measured 2 h later. *, P<0.05 vs. vehicle; n=12-24 per group. In FIG. 2B, Nmur1 or Nmur2 mice were dosed i.c.v. with either vehicle (aCSF) or 3 μg NMU ˜30 min. prior to the onset of the dark phase and food intake was measured 2 h later. *, P<0.05 vs. corresponding vehicle; #, P<0.05 vs. Nmur2+/+, NMU; n=14 per treatment group.
(§6) Mice were anesthetized with an intramuscular (im) injection of ketamine (100 mg/kg) and domitor (0.75 mg/kg) and placed in a stereotactic device (Kopf Instruments). […]
(§7) For acute nocturnal feeding studies, ad libitum fed male mice maintained on regular chow were weighed and dosed either intraperitoneally (ip) or icv ˜30 min prior to the onset of the dark phase of the light cycle and provided with a preweighed aliquot of chow which was then weighed two and 18 hours (overnight) after the onset of the dark phase. […] For chronic feeding studies, ad libitum fed male mice normally maintained on regular chow were switched to a palatable moderate fat diet at the initiation of treatment and food intake and body weight were measured daily.

Nmur2−/− mice [6] = test: Acute central (i.c.v.) NMU administration in NMUR2 knockout mice; settings: i.c.v. 3 μg NMU, 2 h
Description: as §5, §6, §7

Nmur1−/− mice [7] = test: Acute central (i.c.v.) NMU administration in NMUR1 knockout mice; settings: centrally administered NMU
Description: as §5, §6, §7

C57BL/6 mice [8] = test: 7-day chronic s.c. infusion via Alzet micro-osmotic pumps; settings: C57BL/6 mice, 0.3, 1, 3 or 10 mpk NMU/day s.c. infusion for 7 days
Description: FIG. 3 describes the results from treatment of C57BL/6 mice with either vehicle (H2O); 0.3, 1, 3 or 10 mpk NMU/day; or 10 mpk MTII/day for 7 days via Alzet micro-osmotic pumps implanted sc in the intrascapular space. 7-day cumulative effects on body weight (A), adiposity (B) and food intake (C). *, P<0.05 vs. Vehicle; n=4-10 per treatment group.
(§8) Immediately following surgery, mice were given an im injection of atapimazole. Five days following the initial surgery, mice were again anesthetized and placed in the stereotactic device. Micro-osmotic pumps were removed and replaced with mini-osmotic pumps designed to deliver 0.5 μl/h (Alza Co.) and filled with either aCSF or mouse NMU-23 (Mimotopes) or MTII (Bachem) dissolved in aCSF. The pH of all solutions was adjusted to ˜7 with NaOH. Immediately following surgery, mice were given an im injection of atapimazole. For chronic sc infusions studies, mice were anesthetized and then a micro-osmotic pump designed to deliver 0.5 μl/h and filled with either sterile H2O or mouse NMU-23 (Mimotopes) or MTII (Bachem) dissolved in sterile H2O was implanted subcutaneously in the intrascapular space. The pH of all solutions was adjusted to ˜7 with NaOH. Immediately following surgery, mice were given an im injection of atapimazole.
as §7
Whole body composition analysis of conscious live mice was conducted using a Quantitative Magnetic Resonance (QMR) method (EchoMRI™, Echo Medical Systems, Houston, Tex.) (Tinsley et al. (2004) Obesity Research 12:150). […]

C57BL/6 mice [9] = test: 14-day chronic i.c.v. infusion via Alzet mini-osmotic pumps
Description: FIG. 4 depicts treatment of C57BL/6 mice with either vehicle (aCSF); 12, 36 or 120 μg NMU/day; or 4.8 μg MTII/day for 14 days via Alzet mini-osmotic pumps implanted subcutaneously in the intrascapular space and connected with a catheter to a permanent indwelling i.c.v cannula implanted in the dorsal third cerebroventricle. 14-day cumulative effects on body weight (A), adiposity (B) and food intake (C). *, P<0.05 vs. vehicle; n=5-8 per group.
Mice were anesthetized with an intramuscular (im) injection of ketamine (100 mg/kg) and domitor (0.75 mg/kg) and placed in a stereotactic device (Kopf Instruments). For acute i.c.v. studies, a 26-gauge single acute guide cannula (Plastics One) was implanted into the dorsal third cerebral ventricle (0.22 mm posterior, 0.3 mm lateral and 3.3 mm ventral to bregma) and secured to the skull with cyanoacrylate adhesive followed by dental cement. Following surgery, a 33-gauge dummy cannula (Plastics One) was inserted into each guide cannula and mice were given an im injection of atapimazole (5 mg/kg). All cannulated mice were given one week of postoperative recovery, during which time they were handled daily to minimize nonspecific stress. All substances were administered to conscious mice with a repeating dispenser (Hamilton) equipped with a 50-μl Hamilton syringe and 33-gauge needle designed to extend 0.1-0.2 mm beyond the tip of the guide cannula. Mouse NMU-23 (Phoenix Pharmaceuticals) was dissolved in artificial cerebrospinal fluid (aCSF; Harvard Apparatus) and adjusted the pH to ˜7 with NaOH. All substances were injected in a total volume of 1 μl. Mice were given at least a 48-h recovery period between treatments. All acute icv injection studies were of crossover design, a paradigm in which mice initially treated with vehicle are subsequently treated with the agent of interest dissolved in vehicle and vice versa. For chronic icv studies, a 28-gauge osmotic pump connector cannula (Plastics One) was implanted into the dorsal third cerebral ventricle and secured to the skull. Then a micro-osmotic pump designed to deliver 0.5 μl/h (Alza Co.) and filled with aCSF was implanted subcutaneously in the intrascapular space and connected with vinyl tubing to the osmotic pump connector cannula.
as §8
as §1, with “daily. […]” for “daily.”

[10] = test system: diet-induced obese C57BL/6 mice; test: Core body temperature after acute i.p. dosing of fasted diet-induced obese mice; settings: overnight fasted DIO C57BL/6 mice, i.p. 0.3, 1, 3 or 10 mpk NMU, 6 h monitoring
Description: FIG. 5 presents the results of an experiment where overnight fasted diet-induced obese C57BL/6 mice were dosed i.p. with either vehicle (saline); 0.3, 1, 3 or 10 mpk NMU; or 5 mpk MTII. Core temperature is plotted as change from vehicle baseline. A, hourly change. B, 6-h cumulative change.
Body temperature changes were measured as well. Male diet-induced obese mice maintained on a high fat diet were implanted with Mini-Mitter transmitters (Mini Mitter, Bend, Oreg.) prior to the study. Temperature recordings were initiated one day prior to dosing. Mice were fasted overnight and then the following morning 3 h after the onset of the light phase mice were dosed ip. Core body temperature was monitored for 6 h following dosing.

DIO mice = test: 13-day chronic subcutaneous infusion in DIO mice
Description: as §8, §4

[11] = Nmur1−/− transgenic mice, mouse NMU-23 peptide administration, route not stated
[12] = C57BL/6 mice, 12, 36 or 120 μg NMU/day i.c.v. infusion for 14 days
[13] = C57BL/6 mice, 12, 36 or 120 μg NMU/day i.c.v. infusion for 14 days, listed as mouse NMU-23

rNMU-23: a rat NMU peptide (YKVNEYQGPVAPSGGFFLFRPRN; ends and bridges not checked; UniProt P12760 144-166, looked up)
ad libitum food intake [1]: mimic those of the mouse isoform

NMU: Mouse NMU-23 neuromedin U peptide (Phoenix Pharmaceuticals, Mimotopes), agonist of NMUR1 and NMUR2 (FKAEYQSPSVGQSKGYFLFRPRN; ends and bridges not checked; UniProt Q9QXK8 144-166, looked up)
body weight (C57BL/6 mice [2]): dose-dependent reduction
food intake (C57BL/6 mice [2]): dose-dependent reduction; also recorded: reduces
body weight (Nmur1−/− mice [3]; Nmur1 knockout mice, peripheral (i.p.) 30 mpk NMU, 18 h): not seen
food intake (anorectic action) (Nmur1−/− mice [3]; Nmur1 knockout mice, peripheral (i.p.) 30 mpk NMU, 18 h, 30 mg/kg): not seen; also recorded: absent
body temperature (Nmur1−/− mice [3]; [11]): largely unaffected
body weight (Nmur1−/− mice [3]; [11]): largely unaffected
food intake (Nmur1−/− mice [3]; [11]): largely unaffected
anorectic actions (food intake) (Nmur2−/− mice [4]): present
food intake (C57BL/6 mice [5]): reduces
food intake (anorectic action) (Nmur2−/− mice [6]): do not show the same reduction; also recorded: absent
anorectic actions (food intake) (Nmur1−/− mice [7]): present
adiposity, 7-day cumulative (C57BL/6 mice [8]): dose-dependent effects; also recorded: reduces
body weight, 7-day cumulative (C57BL/6 mice [8]): dose-dependent effects; also recorded: reduces
food intake, 7-day cumulative (C57BL/6 mice [8]): dose-dependent effects; also recorded: reduces
body composition (C57BL/6 mice [9]; 14-day chronic i.c.v. infusion): Effects are also seen
adiposity, 14-day cumulative (C57BL/6 mice [9]; [12]): dose-dependent cumulative effects; also recorded: reduces
body weight, 14-day cumulative (C57BL/6 mice [9]; [12]): dose-dependent cumulative effects; also recorded: reduces
food intake, 14-day cumulative (C57BL/6 mice [9]; [12]): dose-dependent cumulative effects; also recorded: reduces
body weight, 14-day cumulative (C57BL/6 mice [9]; [13]): Effects are also seen
food intake, 14-day cumulative (C57BL/6 mice [9]; [13]): Effects are also seen
core body temperature (change from vehicle baseline) [10]: dose-dependent effect; also recorded: dose-dependently increases
body weight (DIO mice): demonstrable effects
core temperature (DIO mice): demonstrable effects
food intake (DIO mice): demonstrable effects
